From PMC7099587 (ACS Central Science, 2020)
Numbered stars: 1 amine (or outer) side, 2 acyl side, 3 side chain; on linkers, the order of the positions; unused ones are H or OH. Bridge positions count the residues as written; N and C are the ends. Square brackets hold non-standard residues; d marks the D form. Ends that are not written are not given here. Peptide text beside a SMILES is read from it. CH2CH2 = C(C[*:2])[*:1]

Columns and labels:
Sonic Hedgehog (Shh) = Sonic Hedgehog (Shh) (Homo sapiens, UniProt Q15465); assay: Shh binding assay
Shh = settings: read-out: KD (Shh); cited from earlier work
[1] = target: HHIP L2 linear peptide L2 loop (Homo sapiens) (UniProt Q96QV1); settings: cited from earlier work
Keap1 Kelch domain (KKD) = Keap1 Kelch domain (KKD) (Homo sapiens, UniProt Q14145); assay: Keap1 Kelch domain direct binding assay
Sequence of Keap1 Kelch domain (KKD) (Q14145 321-609 limits assumed): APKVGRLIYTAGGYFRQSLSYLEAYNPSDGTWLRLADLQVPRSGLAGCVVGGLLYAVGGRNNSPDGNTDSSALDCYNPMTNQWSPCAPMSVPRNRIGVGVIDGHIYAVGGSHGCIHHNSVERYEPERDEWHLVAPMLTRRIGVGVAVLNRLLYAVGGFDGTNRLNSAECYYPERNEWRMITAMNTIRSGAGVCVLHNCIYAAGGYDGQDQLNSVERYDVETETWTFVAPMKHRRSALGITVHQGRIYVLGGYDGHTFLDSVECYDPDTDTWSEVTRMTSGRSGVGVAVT

[2] = target: Sonic Hedgehog construct with N-terminal poly-His tag and TEV-cleavable linker ("Shh") (UniProt Q15465); assay: ELISA
[3] = target: Kelch domain of Kelch-like ECH-associated protein 1 (Keap1); assay: ELISA

CSCC[C@@H]1NC(=O)[C@H](CCC(=O)O)NC(=O)[C@H](CCC(=O)O)NC(=O)[C@@H](NC(=O)[C@H](CC(=O)O)NC(=O)[C@H](CC(=O)O)NC(=O)[C@H](CC(C)C)NC(=O)[C@@H](NC(=O)[C@H](CO)NC(=O)CNC(=O)[C@H](CO)NC(=O)CNC(=O)[C@H](CCCCN)NC(=O)[C@H](CC(=O)O)NC(=O)[C@H](CC(=O)O)NC(=O)[C@H](CC(=O)O)NC(=O)[C@H](CC(=O)O)NC(=O)[C@H](CCCCN)NC(=O)[C@H](Cc2ccc(O)cc2)NC(=O)[C@H](CC(=O)O)NC(=O)[C@@H](N)CCSC)[C@@H](C)O)Cc2ccc(cc2)OCCSC[C@@H](C(=O)N[C@@H](CO)C(=O)N[C@@H](CC(=O)O)C(=O)N[C@H](C(=O)O)[C@@H](C)O)NC(=O)CNC(=O)[C@H](CC(=O)O)NC1=O [cyclic version of the HHIP L2 sequence] (H-MDYKDDDDKGSGSTLDDYEEMDGCSDT-OH; linker 18-24 via CH2CH2; C-terminus assumed)
fold lower affinity vs Shh-m1 (Sonic Hedgehog (Shh)): ~7 fold

TLSW(Y*)EAMDMCTD (sidechain bridge or staple) [HL2-m5]
Kd (Shh): 170 nM

Sonic Hedgehog (from UniProt Q15465)
Kd [1]: 150000 nM

cyclo[Y*D(X)ETGEC] (sidechain bridge or staple) [KKD(6X)-m1]
fold higher affinity vs KKD-m1 (Keap1 Kelch domain (KKD)): ~3 fold

CSCC[C@@H]1NC(=O)[C@H](C)NC(=O)[C@H](CCC(=O)O)NC(=O)[C@@H](NC(=O)[C@@H]2CCCN2C(=O)[C@H](CO)NC(=O)[C@H](CO)NC(=O)CNC(=O)[C@H](CO)NC(=O)CNC(=O)[C@H](CO)NC(=O)CNC(=O)[C@H](CCCCN)NC(=O)[C@H](CC(=O)O)NC(=O)[C@H](CC(=O)O)NC(=O)[C@H](CC(=O)O)NC(=O)[C@H](CC(=O)O)NC(=O)[C@H](CCCCN)NC(=O)[C@H](Cc2ccc(O)cc2)NC(=O)[C@H](CC(=O)O)NC(=O)[C@@H](N)CCSC)Cc2ccc(cc2)OCCSC[C@@H](C(=O)N[C@H](C(=O)N[C@@H](CC(=O)O)C(=O)N[C@H](C(=O)O)[C@@H](C)O)[C@@H](C)O)NC(=O)[C@H](CCSC)NC(=O)[C@H](CC(=O)O)NC1=O [Shh-m1] (H-MDYKDDDDKGSGSGSSPYEAMDMCTDT-OH; linker 18-24 via CH2CH2; N-terminus and C-terminus assumed)
Kd (Sonic Hedgehog (Shh)): 550 nM

cyclo[Y*D(X)ETGEC] (sidechain bridge or staple) [KKD(6X)-m2]
fold higher affinity vs KKD-m1 (Keap1 Kelch domain (KKD)): ~3 fold

O=C(C[C@@H]1C/C=C/CCC(=O)O[C@H](c2ccccc2)CNC1=O)NCc1ccc(Cl)cc1 [robotnikinin]
Kd (Shh): 3100 nM

cyclic version of the HHIP L2 sequence (from UniProt Q96QV1 375-387) (peptide)
Kd [2]: 3600 nM

B1: KKD(6X)-m2 (peptide)
peptide: [O2beY]DIETGEC
modifications: thioether 1-8
Kd [3]: 40 nM

B2: KKD(6X)-m1 (peptide)
peptide: [O2beY]DAETGEC
modifications: thioether 1-8
Kd [3]: 40 nM
